Experimental data taken from patent EP0059645A1, “Method and kit for identification of beta-lactamases” (NATIONAL RESEARCH DEVELOPMENT CORPORATION, priority 1981, dated 1982).
Marks after values point to notes of the source that are not given here.

Assays:
TEM-2 [1] = biological target: T1, TEM-2 (Escherichia coli, UniProt P62593, Q37K); assay: Competitive assay with nitrocefin (RSAI); assay type: biochemical, E. coli 1725E
HMS-1 [2] = assay: Competitive assay with nitrocefin (RSAI); assay type: biochemical, E. coli 1946
[3] = biological target: T2, Chromosomal, constitutive beta-lactamase enzyme (Enterobacter cloacae, UniProt P05364); assay: Competitive assay with nitrocefin (RSAI); assay type: biochemical, E. cloacae
T2 construct: Normally, therefore, the beta-lactamase has to be extracted from the cells for the purpose of the present invention; endogenous in cells

PSE-3 [4] = assay: Competitive assay with nitrocefin (RSAI); assay type: biochemical, Ps.aerug. 1920E
[5] = biological target: T3, Chromosomal, induced beta-lactamase enzyme (Pseudomonas aeruginosa, UniProt P24735); assay: Competitive assay with nitrocefin (RSAI); assay type: biochemical, Ps.aerug. 1937E + ampicillin
T3 construct: Normally, therefore, the beta-lactamase has to be extracted from the cells for the purpose of the present invention; endogenous in cells; host or cells: Pseudomonas aeruginosa 1937E grown with ampicillin

K10317 = assay: Competitive assay with nitrocefin (RSAI); assay type: biochemical, K.aerog. 10317
K1073 = assay: Competitive assay with nitrocefin (RSAI); assay type: biochemical, Klebsiella 1073
K17 = assay: Competitive assay with nitrocefin (RSAI); assay type: biochemical, Klebsiella 17
TEM-2 beta-lactamase = TEM-2 beta-lactamase (Escherichia coli, UniProt P62593, Q37K); assay type: biochemical, E. coli C9 RP4; details: without pre-incubation; nitrocefin 50 micrograms/ml; after 4.5 minutes; 37°C
OXA-3 [6] = biological target: T4, OXA-3 (Pseudomonas aeruginosa, UniProt Q51429); assay: Competitive assay with nitrocefin (RSAI); assay type: biochemical, E. coli R57B; set-up: Normally, therefore, the beta-lactamase has to be extracted from the cells for the purpose of the present invention; endogenous in cells
PSE-1 [7] = biological target: T5, PSE-1 (Pseudomonas aeruginosa, UniProt Q03170); assay: Competitive assay with nitrocefin (RSAI); assay type: biochemical, Ps.aerug. 1937E; set-up: Normally, therefore, the beta-lactamase has to be extracted from the cells for the purpose of the present invention; endogenous in cells
PSE-2 [8] = biological target: T6, PSE-2 (Pseudomonas aeruginosa, UniProt P14489); assay: Competitive assay with nitrocefin (RSAI); assay type: biochemical, Ps.aerug. 1973E; set-up: Normally, therefore, the beta-lactamase has to be extracted from the cells for the purpose of the present invention; endogenous in cells
PSE-4 [9] = biological target: T7, PSE-4 (Pseudomonas aeruginosa, UniProt P16897); assay: Competitive assay with nitrocefin (RSAI); assay type: biochemical, Ps.aerug. 1559E; set-up: Normally, therefore, the beta-lactamase has to be extracted from the cells for the purpose of the present invention; endogenous in cells
SHV-1 [10] = biological target: T8, SHV-1 (Escherichia coli, UniProt P0AD63); assay: Competitive assay with nitrocefin (RSAI); assay type: biochemical, E. coli 2008E; set-up: the beta-lactamase has to be extracted from the cells for the purpose of the present invention; made in house; host or cells: E. coli 2008E (crude cell extract)
TEM-1 [11] = biological target: T9, TEM-1 (Escherichia coli, UniProt P62593); assay: Competitive assay with nitrocefin (RSAI); assay type: biochemical, E. coli 2136E; set-up: the beta-lactamase has to be extracted from the cells for the purpose of the present invention; made in house; host or cells: E. coli 2136E (plasmid-bearing strain; crude cell extract)
OXA-1 [12] = biological target: T10, OXA-1 (Escherichia coli, UniProt P13661); assay: Competitive assay with nitrocefin (RSAI); assay type: biochemical, E. coli 1527E; set-up: the beta-lactamase has to be extracted from the cells for the purpose of the present invention; made in house; host or cells: E. coli 1527E according to the earlier reading (crude cell extract)
[13] = biological target: Chromosomal, hyper-induced beta-lactamase enzyme (Escherichia coli, UniProt P00811); assay: Competitive assay with nitrocefin (RSAI); assay type: biochemical, E. coli SNU35; set-up: Normally, therefore, the beta-lactamase has to be extracted from the cells for the purpose of the present invention; endogenous in cells; host or cells: E. coli SNU 35 (artificially produced strain)
OXA-2 [14] = biological target: T11, OXA-2 (Escherichia coli, UniProt P0A1V9); assay: Competitive assay with nitrocefin (RSAI); assay type: biochemical, E. coli R46; set-up: the beta-lactamase has to be extracted from the cells for the purpose of the present invention; made in house; host or cells: E. coli carrying R46 according to the earlier reading (crude cell extract)
TEM-1 [15] = biological target: T9, TEM-1; assay: 6-well visual test with nitrocefin; details: 3 minutes, room temperature
TEM-2 [16] = biological target: T1, TEM-2; assay: 6-well visual test with nitrocefin; details: 3 minutes, room temperature
SHV-1 [17] = biological target: T8, SHV-1; assay: 6-well visual test with nitrocefin; details: 3 minutes, room temperature
HMS-1 [18] = assay: 6-well visual test with nitrocefin; details: 3 minutes, room temperature
OXA-1 [19] = biological target: T10, OXA-1; assay: 6-well visual test with nitrocefin; details: 3 minutes, room temperature
OXA-2 [20] = biological target: T11, OXA-2; assay: 6-well visual test with nitrocefin; details: 3 minutes, room temperature
OXA-3 [21] = biological target: T4, OXA-3; assay: 6-well visual test with nitrocefin; details: 3 minutes, room temperature
E. cloacae = E. cloacae (Enterobacter cloacae, UniProt P05364); assay: 6-well visual test with nitrocefin; details: 3 minutes, room temperature
PSE-1 [22] = biological target: T5, PSE-1; assay: 6-well visual test with nitrocefin; details: 3 minutes, room temperature
PSE-2 [23] = biological target: T6, PSE-2; assay: 6-well visual test with nitrocefin; details: 3 minutes, room temperature
PSE-3 [24] = assay: 6-well visual test with nitrocefin; details: 3 minutes, room temperature
PSE-4 [25] = biological target: T7, PSE-4; assay: 6-well visual test with nitrocefin; details: 3 minutes, room temperature
Ps +AMP (Chromosomal) = Ps +AMP (Chromosomal) (Pseudomonas aeruginosa, UniProt P24735); assay: 6-well visual test with nitrocefin; details: 3 minutes, room temperature
[26] = well C: Cefamandole 1:1 to nitrocefin
[27] = well B: Cefotaxime 100:1 to nitrocefin
[28] = well D: Mecillinam 20:1 to nitrocefin

SMILES	RSAI (TEM-2 [1])	RSAI (HMS-1 [2])	RSAI [3]	RSAI (PSE-3 [4])	RSAI [5]	RSAI (K10317)	RSAI (K1073)	RSAI (K17)	RSAI (OXA-3 [6])	RSAI (PSE-1 [7])	RSAI (PSE-2 [8])	RSAI (PSE-4 [9])	RSAI (SHV-1 [10])	RSAI (TEM-1 [11])	RSAI (OXA-1 [12])	RSAI [13]	RSAI (OXA-2 [14])	further results
CC1(C)S[C@@H]2[C@H](NC(=O)[C@H](N)c3ccccc3)C(=O)N2[C@H]1C(=O)O [Ampi-cillin, ampicillin]	2.6	0.5	0.02	1.7	0.12	9.4	6.7	2.9	0.2	0.4	0.85	2.7	3	4	4	0.03*	10	RSAI (TEM-2 beta-lactamase): 1.3
Cn1nnnc1SCC1=C(C(=O)O)N2C(=O)[C@@H](NC(=O)[C@H](O)c3ccccc3)[C@H]2SC1 [Cefaman-dole, Cefamandole]	11	0.5	0.03	0.006	5	5	3.9	1.8	0.75	6.9	0.06	9	6.6	11	1.5	0.12*	1.7	Score in 6-well visual test (TEM-1 [15]; [26]): ++; Score in 6-well visual test (TEM-2 [16]; [26]): ++; Score in 6-well visual test (SHV-1 [17]; [26]): ++; Score in 6-well visual test (HMS-1 [18]; [26]): +; Score in 6-well visual test (OXA-1 [19]; [26]): ++; Score in 6-well visual test (OXA-2 [20]; [26]): +; Score in 6-well visual test (OXA-3 [21]; [26]): +; Score in 6-well visual test (E. cloacae; [26]): -; Score in 6-well visual test (PSE-1 [22]; [26]): ++; Score in 6-well visual test (PSE-2 [23]; [26]): -; Score in 6-well visual test (PSE-3 [24]; [26]): -; Score in 6-well visual test (PSE-4 [25]; [26]): ++; Score in 6-well visual test (Ps +AMP (Chromosomal); [26]): +
CO/N=C(\C(=O)N[C@@H]1C(=O)N2C(C(=O)O)=C(COC(C)=O)CS[C@H]12)c1csc(N)n1 [Cefotaxime]	600	11	0.0006	100	0.004	320	330	60	15	70	9.6	50	400	400	9	0.004	12	Score in 6-well visual test (TEM-1 [15]; [27]): ++; Score in 6-well visual test (TEM-2 [16]; [27]): ++; Score in 6-well visual test (SHV-1 [17]; [27]): ++; Score in 6-well visual test (HMS-1 [18]; [27]): -; Score in 6-well visual test (OXA-1 [19]; [27]): -; Score in 6-well visual test (OXA-2 [20]; [27]): -; Score in 6-well visual test (OXA-3 [21]; [27]): -; Score in 6-well visual test (E. cloacae; [27]): -; Score in 6-well visual test (PSE-1 [22]; [27]): +; Score in 6-well visual test (PSE-2 [23]; [27]): -; Score in 6-well visual test (PSE-3 [24]; [27]): +; Score in 6-well visual test (PSE-4 [25]; [27]): +; Score in 6-well visual test (Ps +AMP (Chromosomal); [27]): -
CC1(C)S[C@@H]2[C@H](/N=C/N3CCCCCC3)C(=O)N2[C@H]1C(=O)O [Mecil-linam, Mecillinam]	80	2	1.3*	15	68	80	102	260	30	66	450	140	80	90	400	0.7*	100	Score in 6-well visual test (TEM-1 [15]; [28]): ++; Score in 6-well visual test (TEM-2 [16]; [28]): ++; Score in 6-well visual test (SHV-1 [17]; [28]): ++; Score in 6-well visual test (HMS-1 [18]; [28]): -; Score in 6-well visual test (OXA-1 [19]; [28]): ++; Score in 6-well visual test (OXA-2 [20]; [28]): +; Score in 6-well visual test (OXA-3 [21]; [28]): +; Score in 6-well visual test (E. cloacae; [28]): -; Score in 6-well visual test (PSE-1 [22]; [28]): ++; Score in 6-well visual test (PSE-2 [23]; [28]): ++; Score in 6-well visual test (PSE-3 [24]; [28]): +; Score in 6-well visual test (PSE-4 [25]; [28]): ++; Score in 6-well visual test (Ps +AMP (Chromosomal); [28]): +
